In patent publication US20150065470A1, “Steroid Sulfatase Inhibitor Regimen for the Treatment of Endometriosis” (priority 2012, published 2015):
Where two headings read alike, the source gives them in different places.

Columns and labels:
[1] = biological target: T1, Steroid Sulfatase in PBMCs (Homo sapiens, UniProt P08842); test: STS activity in PBMCs, Example 1 (radio scintillation assay); format: in vivo; details: for Emax: read-out: Emax (%) maximal inhibition of Steroid Sulfatase in PBMCs, Mean (SD); for STS inhibition in PBMCs: single dose 4 mg E2MATE
T1 construct: Pharmacodynamic properties were investigated by assessment of the STS activity in PBMCs; endogenous in cells; host or cells: peripheral blood mononuclear cells (PBMCs) of dosed women
T1 sequence (P08842 22-583): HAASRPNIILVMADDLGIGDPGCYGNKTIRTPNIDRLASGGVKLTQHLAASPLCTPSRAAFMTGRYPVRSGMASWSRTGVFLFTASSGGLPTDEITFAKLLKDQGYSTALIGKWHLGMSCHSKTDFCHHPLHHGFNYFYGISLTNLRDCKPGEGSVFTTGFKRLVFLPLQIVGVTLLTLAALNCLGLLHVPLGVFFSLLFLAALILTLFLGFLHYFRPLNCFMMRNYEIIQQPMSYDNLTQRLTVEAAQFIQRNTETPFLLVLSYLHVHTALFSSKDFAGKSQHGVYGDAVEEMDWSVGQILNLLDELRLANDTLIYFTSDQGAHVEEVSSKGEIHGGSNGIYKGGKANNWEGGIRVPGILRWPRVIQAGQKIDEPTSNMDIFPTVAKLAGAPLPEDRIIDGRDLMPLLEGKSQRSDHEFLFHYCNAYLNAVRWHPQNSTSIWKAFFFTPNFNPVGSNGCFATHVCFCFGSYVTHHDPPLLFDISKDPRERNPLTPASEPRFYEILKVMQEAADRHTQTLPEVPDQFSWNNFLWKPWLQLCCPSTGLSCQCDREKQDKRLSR
Method: (§1) Treatment was started within 72 hours after the beginning of menstrual bleeding.
The active doses tested were 0.25 mg (1st cohort), 1 mg, 4 mg and 8 mg.
The active doses tested were 0.25 mg, 1 mg and 4 mg.
(§2) Ovarian and endometrium transvaginal ultrasounds throughout the study (Part A and B) and an endometrial biopsy (Part B only) were performed.
(§3) Pharmacodynamic properties were investigated by assessment of the STS activity in PBMCs and by measurement of the serum hormonal profile comprising the ratio of E1-S to E1 and DHEA-S to DHEA. […] Hormone profiles were analysed using commercially available ELISA or RIA kits.

STS [2] = test: E1-S to E1 and DHEA-S to DHEA ratios, Example 1; format: in vivo, human; details: multiple doses 0.25, 1, 4 mg weekly x4
Method: as §3

[3] = Safety, tolerability and ovarian cycle parameters, Example 1
Method: as §1, §2

STS activity in PBMCs = biological target: T2, STS activity in PBMCs (Homo sapiens, UniProt P08842); test: STS activity in PBMCs, Example 2 (LC-MS/MS); format: in vivo; details: E2MATE 4 mg weekly and/or NETA 10 mg daily for 4 weeks
T2 construct: Pharmacodynamic properties were investigated by assessment of the STS activity in PBMCs; endogenous in cells; host or cells: peripheral blood mononuclear cells (PBMCs) of dosed women
T2 sequence (P08842 22-583): T1 sequence (P08842 22-583)
Method: STS activity was determined by spiking specimens with labelled E1-S and by measuring its conversion to E1 per gram protein under standardized incubation conditions using LC-MS/MS. Protein concentration was evaluated with a validated colorimetric assay (Bradford method).

E2 and P4; T and D4A = test: Hormone profiles (E2, P4, T, D4A), Example 2; format: in vivo, human
Method: Hormone profiles were determined as described in Example 1.

[4] = Safety, tolerability and post-treatment menstruation cycles, Example 2
Description: Menstruation cycle length was not influenced by the treatment. […] Sizes of right and left ovary differed slightly for each subject, but no clinically relevant changes were identified by the gynaecologists.

[5] = Pharmacokinetic model: accumulation of E2MATE+EMATE, Example 3; parameters: species or system human
Method: As shown on FIG. 2, the accumulation ratio (Racc) based on the accumulation between two doses during one week time could be calculated. […] This could be achieved for example by the administration of 1 mg every 3 days or 2 mg per week (FIG. 2B).

[6] = biological target: T3, STS activity in Peripheral Blood Mononuclear Cells (PBMCs) (Homo sapiens, UniProt P08842); test: STS inhibition in PBMCs, loading and maintenance phase, Example 4; format: in vivo; details: concomitant NETA 5 mg daily, patients
T3 construct: Pharmacodynamic properties were investigated by assessment of the STS activity in PBMCs; endogenous in cells; host or cells: peripheral blood mononuclear cells (PBMCs) of dosed women
T3 sequence (P08842 22-583): T1 sequence (P08842 22-583)
Description: The study is multicentre, randomised, two-arm, parallel group, double-blind, placebo controlled where eligible subjects were randomised on study day 1 in a 1:1 ratio into treatment group A or B between day 1 and day 4 of the menstrual bleeding.
The baseline is established in terms of endometriosis profile regarding pelvic pain, dysmenorrhea, dyspaneuria and bleeding pattern and those parameters are followed during the treatment. During the loading phase the subjects are monitored on day 7, day 21 and on week 4 and during the maintenance phase monthly on week 8, week 12 and week 16.

[7] = biological target: T4, STS activity in the uterus or in induced lesions (Mus musculus, UniProt P50427); details: highest dose (1 mg/kg daily oral, 21 days); cited from earlier work
T4 construct: host or cells: mouse uterus or induced endometriosis-like lesions
T4 sequence (P50427 23-624): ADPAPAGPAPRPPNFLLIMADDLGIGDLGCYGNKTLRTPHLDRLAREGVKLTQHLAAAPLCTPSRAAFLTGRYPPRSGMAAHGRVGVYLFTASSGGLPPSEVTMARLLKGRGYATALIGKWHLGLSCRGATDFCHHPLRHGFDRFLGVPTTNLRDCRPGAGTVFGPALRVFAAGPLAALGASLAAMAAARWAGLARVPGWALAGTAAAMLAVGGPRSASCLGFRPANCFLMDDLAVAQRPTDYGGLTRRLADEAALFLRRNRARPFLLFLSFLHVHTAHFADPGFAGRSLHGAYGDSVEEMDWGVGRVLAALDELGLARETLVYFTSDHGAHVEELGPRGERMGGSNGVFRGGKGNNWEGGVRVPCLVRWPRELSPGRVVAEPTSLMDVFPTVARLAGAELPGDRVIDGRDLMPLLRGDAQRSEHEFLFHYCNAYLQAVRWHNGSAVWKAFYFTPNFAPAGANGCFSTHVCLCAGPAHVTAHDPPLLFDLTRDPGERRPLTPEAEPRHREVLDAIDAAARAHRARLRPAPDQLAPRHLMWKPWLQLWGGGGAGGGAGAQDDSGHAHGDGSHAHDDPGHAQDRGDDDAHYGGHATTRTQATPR

STS [8] = biological target: T5, STS (Homo sapiens, UniProt P08842); details: cited from earlier work
T5 sequence (P08842 22-583): T1 sequence (P08842 22-583)

[9] = multiple dose 0.25 mg E2MATE weekly for four weeks
[10] = multiple dose 1 mg E2MATE weekly for four weeks
[11] = multiple dose 4 mg E2MATE weekly for four weeks

C[C@]12CC[C@@H]3c4ccc(OS(N)(=O)=O)cc4CC[C@H]3[C@@H]1CC[C@@H]2O [E2MATE, Estradiol-3-o-sulfamate]
AVG (%) average inhibition of Steroid Sulfatase in PBMCs, Mean (SD) [1, 9]: 22.7 (16.5) % | Emax [1, 9]: 42% | AVG (%) average inhibition of Steroid Sulfatase in PBMCs, Mean (SD) [1, 10]: 43.5 (23.2) % | Emax [1, 10]: 79.5% | AVG (%) average inhibition of Steroid Sulfatase in PBMCs, Mean (SD) [1, 11]: 88.4 (9.5) % | Emax [1, 11]: 100% | Emax ([1]; po, single oral dose 0.25 mg E2MATE): 59.5% | Emax ([1]; po, single oral dose 1 mg E2MATE): 58.7% | Emax ([1]; po, single oral dose 4 mg E2MATE): 99.5% | STS inhibition in PBMCs ([1]; Day 0 of cycle 2 (approximately 56 days after dosing)): 82% | STS inhibition in PBMCs ([1]; Day 3): 96% | AVG (%) average inhibition of Steroid Sulfatase in PBMCs, Mean (SD) ([1]; single oral dose 0.25 mg E2MATE, Day 1 until EOS): 23.2 (14.6) % | AVG (%) average inhibition of Steroid Sulfatase in PBMCs, Mean (SD) ([1]; single oral dose 1 mg E2MATE, Day 1 until EOS): 25.2 (10.6) % | turn-over of E1-S to E1 (STS [2]): dose-dependent decreased turn-over | cycle length ([3]; in vivo): not affected | endometrial thickness assessed by TVUS, between treatment groups ([3]; in vivo): no clinically relevant differences | number of measurable follicles / subjects with follicles >10 mm ([3]; in vivo): No clinically relevant effects | tolerability ([3]; multiple doses of 0.25, 1 mg and 4 mg weekly x4): well tolerated | tolerability ([3]; single doses of 0.25 mg, 1 mg, 4 mg and 8 mg): well tolerated | mean percentage inhibition of STS activity in PBMCs (STS activity in PBMCs; Day 4): 90% | percentage inhibition of STS activity in PBMCs (STS activity in PBMCs; Day 113): 37% | average inhibition of STS activity in PBMCs (STS activity in PBMCs): 82.6% | mean maximal inhibition of STS activity in PBMCs (STS activity in PBMCs): 94.7% | mean concentration-time profiles in E2 and P4 (E2 and P4; T and D4A; first cycle up to Day 29, normal increase on Day 43): Normal mean concentration-time profiles | mean concentration-time profiles for T and D4A (E2 and P4; T and D4A; multiple dose administration): No relevant differences | ovarian size ([4]; in vivo): no apparent effect | tolerability ([4]; multiple doses for 4 weeks, healthy pre-menopausal female subjects): well tolerated | accumulation ratio (Racc) of E2MATE+EMATE ([5]; Cmin 504 h versus Cmin 168 h, 4 mg/week during 4 weeks): about 2.7 | E2MATE dose necessary to maintain the blood levels reached after the loading period ([5]; after loading 4 mg/week during 4 weeks): 0.36 mg/day | STS inhibition in PBMCs after the loading phase ([6]; Day 28, 16 mg over 4 weeks): almost complete | STS inhibition in PBMCs at maintenance dose ([6]; Day 56, 2 mg/week): almost entire | STS activity inhibition in the uterus or in induced lesions [7]: ≤ 36% | STS inhibition (STS [8]): active STS inhibitors
